In patent US20230265151A1, “GIP/GLP1 CO-AGONIST COMPOUNDS” (priority 2020, published 2023):
Like-named read-outs stand apart in the source and are kept apart here.

Assays:
Format in all cases: cell-based
hGCGR = molecular target: T1, hGCGR (Homo sapiens, UniProt P47871); experiment: Functional cAMP formation (HTRF) in HEK-293 clonal cells expressing hGCGR, 0.1% bovine casein, without or with 1.0% human serum albumin
T1 construct: expressed in transfected cells
In short: (§1)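 Cells were stimulated with peptide for 30 min at 37° C, then lysed in buffer carrying cAMP-d2 and anti-cAMP Eu3+-cryptate for a competitive HTRF read after at least 60 min at room temperature. The 665/620 nm ratio was converted to nM cAMP against a standard curve.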

hGIPR = molecular target: T2, hGIPR (Homo sapiens, UniProt P48546); experiment: Functional cAMP formation (HTRF) in HEK-293 clonal cells expressing hGIPR, 0.1% bovine casein, without or with 1.0% human serum albumin; conditions: for EC50: cAMP
T2 construct: expressed in transfected cells
T2 sequence (P48546 22-466): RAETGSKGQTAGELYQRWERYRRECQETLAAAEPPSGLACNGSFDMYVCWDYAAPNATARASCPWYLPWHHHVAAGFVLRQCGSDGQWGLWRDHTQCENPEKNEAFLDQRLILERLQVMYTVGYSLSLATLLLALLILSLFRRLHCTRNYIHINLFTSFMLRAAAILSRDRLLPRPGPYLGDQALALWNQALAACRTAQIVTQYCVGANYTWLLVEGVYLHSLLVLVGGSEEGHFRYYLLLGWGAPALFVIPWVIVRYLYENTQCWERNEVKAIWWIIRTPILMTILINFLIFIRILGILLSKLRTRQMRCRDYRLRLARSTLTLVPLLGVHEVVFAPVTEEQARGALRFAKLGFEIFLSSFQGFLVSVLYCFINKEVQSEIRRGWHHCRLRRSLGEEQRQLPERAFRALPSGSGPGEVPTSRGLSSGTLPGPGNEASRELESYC
In short: as §1

hGLP-1R = hGLP-1R (Homo sapiens, UniProt P43220); experiment: Functional cAMP formation (HTRF) in HEK-293 clonal cells expressing hGLP-1R, 0.1% bovine casein, without or with 1.0% human serum albumin; set-up: expressed in transfected cells; conditions: for EC50: cAMP, 0.1% bovine casein (no human serum albumin), geometric mean
Chain of hGLP-1R (P43220 24-463): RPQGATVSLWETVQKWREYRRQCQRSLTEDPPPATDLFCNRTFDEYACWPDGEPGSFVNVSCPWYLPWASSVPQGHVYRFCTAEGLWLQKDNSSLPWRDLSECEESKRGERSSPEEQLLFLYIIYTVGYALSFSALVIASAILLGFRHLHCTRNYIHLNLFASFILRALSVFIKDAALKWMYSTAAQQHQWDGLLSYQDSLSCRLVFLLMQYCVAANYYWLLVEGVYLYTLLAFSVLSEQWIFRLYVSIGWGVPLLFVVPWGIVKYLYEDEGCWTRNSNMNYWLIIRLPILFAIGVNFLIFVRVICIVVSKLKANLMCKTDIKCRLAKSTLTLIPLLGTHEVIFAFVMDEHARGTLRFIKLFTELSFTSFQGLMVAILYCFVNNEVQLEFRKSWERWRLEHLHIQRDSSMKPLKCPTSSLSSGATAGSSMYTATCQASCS
In short: as §1

[1] = 0.1% bovine casein and 1.0% human serum albumin, 37° C., geometric mean, read-out: hGCGR EC50, nM (SEM, n)
[2] = cAMP, incubated at 37° C., 0.1% bovine casein (no human serum albumin), geometric mean, read-out: hGCGR EC50, nM (SEM, n)
[3] = HEK293, 0.1% bovine casein and 1.0% human serum albumin, 37° C., percent of maximal response to GIP(1-42)NH2, read-out: hGIPR Emax, % ± SEM
[4] = HEK293, percent of maximal response to GIP(1-42)NH2, 37° C., 0.1% bovine casein, arithmetic mean, read-out: hGIPR Emax, % ± SEM
[5] = HEK293, 0.1% bovine casein and 1.0% human serum albumin, 37° C., percent of maximal response to GLP-1(7-36)NH2, read-out: hGLP-1R Emax, % ± SEM
[6] = HEK293, percent of maximal response to GLP-1(7-36)NH2, 37° C., 0.1% bovine casein, arithmetic mean, read-out: hGLP-1R Emax, % ± SEM
[7] = incubated at 37° C., read-out: hGLP-1R EC50, nM (SEM, n)

T1 sequence (P47871 26-477): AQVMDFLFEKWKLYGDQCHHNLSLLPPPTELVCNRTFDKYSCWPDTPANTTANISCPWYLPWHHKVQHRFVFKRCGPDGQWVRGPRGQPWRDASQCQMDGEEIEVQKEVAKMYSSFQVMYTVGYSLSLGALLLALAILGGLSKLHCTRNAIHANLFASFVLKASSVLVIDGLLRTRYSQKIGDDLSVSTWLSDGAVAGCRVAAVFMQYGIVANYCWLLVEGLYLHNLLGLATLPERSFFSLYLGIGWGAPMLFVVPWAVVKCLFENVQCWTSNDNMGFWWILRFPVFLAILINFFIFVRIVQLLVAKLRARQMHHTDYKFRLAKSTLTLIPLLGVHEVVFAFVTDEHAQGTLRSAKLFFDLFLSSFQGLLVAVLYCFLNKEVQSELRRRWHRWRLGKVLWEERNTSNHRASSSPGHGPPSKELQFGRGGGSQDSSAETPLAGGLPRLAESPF

Row | Compound | EC50 (hGCGR; [1]) [nM] | EC50 (hGCGR; [2]) [nM] | Emax (hGIPR; [3]) [%] | Emax (hGIPR; [4]) [%] | Emax (hGLP-1R; [5]) [%] | Emax (hGLP-1R; [6]) [%] | EC50 (hGLP-1R; [7]) [nM] | EC50 (hGIPR; incubated at 37° C., 0.1% bovine casein (no human serum albumin), geometric mean, read-out: hGIPR EC50, nM (SEM, n)) [nM] | EC50 (hGCGR; hGCGR EC50, nM (SEM, n), cAMP, 37° C., 0.1% bovine casein (no human serum albumin), geometric mean) [nM] | EC50 (hGCGR; hGCGR EC50, nM (SEM, n), cAMP, 37° C., 0.1% bovine casein and 1.0% human serum albumin, geometric mean (SEM, n)) [nM] | Emax (hGIPR; HEK293, read-out: hGIPR Emax, % ± SEM, cAMP, 37° C., 0.1% bovine casein and 1.0% human serum albumin, percent of maximal response to GIP(1-42)NH2) [%] | Emax (hGIPR; HEK293, read-out: hGIPR Emax, % ± SEM, cAMP, 37° C., 0.1% bovine casein, percent of maximal response to GIP(1-42)NH2, arithmetic mean) [%] | EC50 (hGIPR; hGIPR EC50, nM (SEM, n), 37° C., 0.1% bovine casein (no human serum albumin), geometric mean) [nM] | EC50 (hGIPR; hGIPR EC50, nM (SEM, n), 37° C., 0.1% bovine casein and 1.0% human serum albumin, geometric mean (SEM, n)) [nM] | Emax (hGLP-1R; HEK293, read-out: hGLP-1R Emax, % ± SEM, cAMP, 37° C., 0.1% bovine casein and 1.0% human serum albumin, percent of maximal response to GLP-1(7-36)NH2) [%] | Emax (hGLP-1R; HEK293, read-out: hGLP-1R Emax, % ± SEM, cAMP, 37° C., 0.1% bovine casein, percent of maximal response to GLP-1(7-36)NH2, arithmetic mean) [%] | EC50 (hGLP-1R; hGLP-1R EC50, nM (SEM, n), 37° C.) [nM]
1 | CC[C@H](C)[C@H](NC(=O)[C@H](CC(C)C)NC(=O)[C@](C)(Cc1ccc(O)cc1)NC(=O)[C@@H](CCC(=O)O)NC(=O)[C@@H](NC(=O)[C@H](Cc1ccccc1)NC(=O)[C@H](CCC(=O)O)NC(=O)C(C)(C)NC(=O)[C@H](CCC(N)=O)NC(=O)[C@H](C)NC(=O)[C@H](CCCCNC(=O)COCCOCCNC(=O)COCCOCCNC(=O)CC[C@H](NC(=O)CCCCCCCCCCCCC(=O)O)C(=O)O)NC(=O)[C@H](CCCN)NC(=O)[C@H](CC(=O)O)NC(=O)[C@H](CC(C)C)NC(=O)[C@](C)(CC(C)C)NC(=O)[C@@H](NC(=O)C(C)(C)NC(=O)[C@@H](NC(=O)[C@H](CC(=O)O)NC(=O)[C@H](CO)NC(=O)[C@@H](NC(=O)[C@](C)(Cc1ccccc1F)NC(=O)[C@@H](NC(=O)CNC(=O)[C@H](CCC(=O)O)NC(=O)C(C)(C)NC(=O)[C@@H](N)Cc1ccc(O)cc1)[C@@H](C)O)[C@@H](C)O)C(C)C)[C@@H](C)CC)[C@@H](C)CC)C(=O)N[C@@H](CCC(=O)O)C(=O)NCC(=O)NCC(=O)N[C@@H](CCCCNC(=O)COCCOCCNC(=O)COCCOCCNC(=O)CC[C@H](NC(=O)CCCCCCCCCCCCC(=O)O)C(=O)O)C(=O)N[C@@H](CO)C(=O)N[C@@H](CO)C(=O)NCC(=O)N[C@@H](C)C(=O)N1CCC[C@H]1C(=O)N1CCC[C@H]1C(=O)N1CCC[C@H]1C(=O)N[C@@H](CO)C(N)=O [Example 91] | > 9950 | > 9950 | 91.9 | 92.8 ± 4.69 | 89.8 | 94 ± 5.44 | 0.153 | – | – | – | – | – | – | – | – | – | –
2 | CC[C@H](C)[C@H](NC(=O)[C@H](CC(C)C)NC(=O)[C@](C)(Cc1ccc(O)cc1)NC(=O)[C@@H](CCC(=O)O)NC(=O)[C@@H](NC(=O)[C@H](Cc1ccccc1)NC(=O)[C@H](CCC(=O)O)NC(=O)C(C)(C)NC(=O)[C@H](CCC(N)=O)NC(=O)[C@H](C)NC(=O)[C@H](CCCCNC(=O)COCCOCCNC(=O)COCCOCCNC(=O)CC[C@H](NC(=O)CCCCCCCCCCCCC(=O)O)C(=O)O)NC(=O)[C@H](CCCN)NC(=O)[C@H](CC(=O)O)NC(=O)[C@H](CC(C)C)NC(=O)[C@](C)(CC(C)C)NC(=O)[C@@H](NC(=O)[C@](C)(CO)NC(=O)[C@@H](NC(=O)[C@H](CC(=O)O)NC(=O)[C@H](CO)NC(=O)[C@@H](NC(=O)[C@](C)(Cc1ccccc1F)NC(=O)[C@@H](NC(=O)CNC(=O)[C@H](CCC(=O)O)NC(=O)C(C)(C)NC(=O)[C@@H](N)Cc1ccc(O)cc1)[C@@H](C)O)[C@@H](C)O)C(C)C)[C@@H](C)CC)[C@@H](C)CC)C(=O)N[C@@H](CCC(=O)O)C(=O)NCC(=O)NCC(=O)N[C@@H](CCCCNC(=O)COCCOCCNC(=O)COCCOCCNC(=O)CC[C@H](NC(=O)CCCCCCCCCCCCC(=O)O)C(=O)O)C(=O)N[C@@H](CO)C(=O)N[C@@H](CO)C(=O)NCC(=O)N[C@@H](C)C(=O)N1CCC[C@H]1C(=O)N1CCC[C@H]1C(=O)N1CCC[C@H]1C(=O)N[C@@H](CO)C(N)=O [Example 212] | > 9950 | > 9950 | 81 | 100 | 91 | 94.7 | 0.265 | 0.0385 | – | – | – | – | – | – | – | – | –
3 | CC[C@H](C)[C@H](NC(=O)[C@H](CC(C)C)NC(=O)[C@](C)(Cc1ccc(O)cc1)NC(=O)[C@H](CCCCNC(=O)CC[C@H](NC(=O)COCCOCCNC(=O)COCCOCCNC(=O)CC[C@H](NC(=O)CCCCCCCCCOc1ccc(C(=O)O)cc1)C(=O)O)C(=O)O)NC(=O)[C@@H](NC(=O)[C@H](Cc1ccccc1)NC(=O)[C@H](CCCN)NC(=O)C(C)(C)NC(=O)[C@H](CCC(N)=O)NC(=O)[C@H](C)NC(=O)[C@H](CCC(N)=O)NC(=O)[C@H](CCCN)NC(=O)[C@H](CC(=O)O)NC(=O)[C@H](CC(C)C)NC(=O)[C@](C)(CC(C)C)NC(=O)[C@@H](NC(=O)C(C)(C)NC(=O)[C@H](Cc1ccncc1)NC(=O)[C@H](CC(=O)O)NC(=O)[C@H](CO)NC(=O)[C@@H](NC(=O)[C@](C)(Cc1ccccc1F)NC(=O)[C@@H](NC(=O)CNC(=O)[C@H](CCC(=O)O)NC(=O)C(C)(C)NC(=O)[C@@H](N)Cc1ccc(O)cc1)[C@@H](C)O)[C@@H](C)O)[C@@H](C)CC)[C@@H](C)CC)C(=O)N[C@@H](CCCCNC(=O)CC[C@H](NC(=O)COCCOCCNC(=O)COCCOCCNC(=O)CC[C@H](NC(=O)CCCCCCCCCOc1ccc(C(=O)O)cc1)C(=O)O)C(=O)O)C(=O)NCC(=O)NCC(=O)N1CCC[C@H]1C(=O)N[C@@H](CO)C(=O)N[C@@H](CO)C(=O)NCC(=O)N[C@@H](C)C(=O)N1CCC[C@H]1C(=O)N1CCC[C@H]1C(=O)N1CCC[C@H]1C(=O)N[C@@H](CO)C(N)=O [Example 483] | – | – | – | – | – | – | – | – | > 9950 | > 9950 | 92.6 | 97.4 | 0.0138 | 0.297 | 113 | 118 | 0.169
